Measurements as given in patent publication US20230107642A1 (Erasca, Inc., priority 2020, published 2023).

Biological target: T1, Cys12 of the KRAS 4B G12C protein (Homo sapiens, UniProt P01116, G12C)
T1 construct: This protein contained 188 amino acids in total, including an N-terminal 6-Histidine tag; made in house; host or cells: E. coli BL21
Test: In vitro covalent adduct formation (CAF) assay, LC-MS intact mass
Assay type: binding
Conditions: 10 uM compound, 60 min
In short: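 GDP-loaded (>95%) His-TEV-tagged KRAS 4B G12C (residues 1–169), 5 μM in TBS pH 7.4, incubated with 10 μM compound (4% DMSO) at 22° C for one hour. Intact-protein LC-MS gave free:adduct ratios, reported as percent protein modified; duplicate runs.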

SMILES | % CAF 10 uM @ 60 min [%]
C=CC(=O)N1[C@H](C)CN(c2nc(=O)n3c4c(c(-c5ccc(F)c(Cl)c5)c(C(F)(F)F)cc24)SC[C@@H]3CN2CCN(CC)CC2)C[C@@H]1C [Example 1373, (S)-7-((3S,5R)-4-acryloyl-3,5-dimethylpiperazin-1-yl)-10-(3-chloro-4-fluorophenyl)-3-((4ethylpiperazin-1-yl)methyl)-9-(trifluoromethyl)-2,3-dihydro-5H-[1,4]thiazino[2,3,4-ij]quinazolin-5-one] | 66.2
C=CC(=O)N1[C@H](C)CN(c2nc(=O)n3c4c(c(-c5c(F)cc(F)cc5F)c(C(F)(F)F)cc24)SC[C@@H]3COC)C[C@@H]1C [Example 1374, (S)-7-((3S,5R)-4-acryloyl-3,5-dimethylpiperazin-1-yl)-3-(methoxymethyl)-9-(trifluoromethyl)-10-(2,4,6-trifluorophenyl)-2,3-dihydro-5H-[1,4]thiazino[2,3,4-ij]quinazolin-5-one] | 88.5
C=CC(=O)N1CCN(c2nc(=O)n3c4c(c(-c5c(F)cccc5F)c(C(F)(F)F)cc24)SC[C@@H]3COC)CC1 [Example 1377, (S)-7-(4-acryloylpiperazin-1-yl)-10-(2,6-difluorophenyl)-3-(methoxymethyl)-9-(trifluoromethyl)-2,3-dihydro-5H-[1,4]thiazino[2,3,4-ij]quinazolin-5-one] | 95.5
C=CC(=O)N1CCN(c2nc(=O)n3c4c(c(-c5ccc(F)cc5)c(C(F)(F)F)cc24)SC[C@@H]3CN2CCN(CC)CC2)CC1 [Example 1378, (S)-7-(4-acryloylpiperazin-1-yl)-3-((4-ethylpiperazin-1-yl)methyl)-10-(4-fluorophenyl)-9-(trifluoromethyl)-2,3-dihydro-5H-[1,4]thiazino[2,3,4-ij]quinazolin-5-one] | 78.9
C=CC(=O)N1CCN(c2nc(=O)n3c4c(c(-c5c(F)cc(F)cc5F)c(C(F)(F)F)cc24)SC[C@@H]3COC)CC1 [Example 1379, (S)-7-(4-acryloylpiperazin-1-yl)-3-(methoxymethyl)-9-(trifluoromethyl)-10-(2,4,6-trifluorophenyl)-2,3-dihydro-5H-[1,4]thiazino[2,3,4-ij]quinazolin-5-one] | 96.7
C=CC(=O)N1C[C@H](C)N(c2nc(=O)n3c4c(c(-c5ccc(F)c(Cl)c5)c(C(F)(F)F)cc24)SC[C@@H]3CN2CCN(CC)CC2)C[C@H]1C [Example 1380, (S)-7-((2S,5R)-4-acryloyl-2,5-dimethylpiperazin-1-yl)-10-(3-chloro-4-fluorophenyl)-3-((4-ethylpiperazin-1-yl)methyl)-9-(trifluoromethyl)-2,3-dihydro-5H-[1,4]thiazino[2,3,4-ij]quinazolin-5-one] | 88.4
C=CC(=O)N1CC2COCC(C1)N2c1nc(=O)n2c3c(c(-c4ccc(F)cc4)c(C(F)(F)F)cc13)SC[C@@H]2COC [Example 1383, (3S)-7-(7-acryloyl-3-oxa-7,9-diazabicyclo[3.3.1]nonan-9-yl)-10-(4-fluorophenyl)-3-(methoxymethyl)-9-(trifluoromethyl)-2,3-dihydro-5H-[1,4]thiazino[2,3,4-ij]quinazolin-5-one] | 66
C=CC(=O)N1C2COCC1CN(c1nc(=O)n3c4c(c(-c5ccc(F)cc5)c(C(F)(F)F)cc14)SC[C@@H]3COC)C2 [Example 1384, (3S)-7-(9-acryloyl-3-oxa-7,9-diazabicyclo[3.3.1]nonan-7-yl)-10-(4-fluorophenyl)-3-(methoxymethyl)-9-(trifluoromethyl)-2,3-dihydro-5H-[1,4]thiazino[2,3,4-ij]quinazolin-5-one] | 77.8
C=CC(=O)N1[C@H](C)CN(c2nc(=O)n3c4c(c(-c5cccc6cnn(C)c56)c(C(F)(F)F)cc24)SC[C@@H]3CN2C[C@@H]3C[C@H]2CO3)C[C@@H]1C [Example 1385, (3S)-3-(((1S,4S)-2-oxa-5-azabicyclo[2.2.1]heptan-5-yl)methyl)-7-((3S,5R)-4-acryloyl-3,5-dimethylpiperazin-1-yl)-10-(1-methyl-1H-indazol-7-yl)-9-(trifluoromethyl)-2,3-dihydro-5H-[1,4]thiazino[2,3,4-ij]quinazolin-5-one] | 92.5
C=CC(=O)N1[C@H](C)CN(c2nc(=O)n3c4c(c(-c5ccc(F)c(Cl)c5)c(C(F)(F)F)cc24)SC[C@@H](N2CCOCC2)C3)C[C@@H]1C [Example 1386, (S)-8-((3S,5R)-4-acryloyl-3,5-dimethylpiperazin-1-yl)-11-(3-chloro-4-fluorophenyl)-3-morpholino-10-(trifluoromethyl)-3,4-dihydro-2H,6H-[1,4]thiazepino[2,3-4-ij]quinazolin-6-one] | 71.6
C=CC(=O)N1C[C@H](C)N(c2nc(=O)n3c4c(c(-c5ccc(F)c(Cl)c5)c(C(F)(F)F)cc24)SC[C@@H]3CN2CCN(C3CC3)CC2)C[C@H]1C [Example 1387, (S)-7-((2S,5R)-4-acryloyl-2,5-dimethylpiperazin-1-yl)-10-(3-chloro-4-fluorophenyl)-3-((4-cyclopropylpiperazin-1-yl)methyl)-9-(trifluoromethyl)-2,3-dihydro-5H-[1,4]thiazino[2,3,4-ij]quinazolin-5-one] | 71
C=CC(=O)N1C2CCC1CN(c1nc(=O)n3c4c(c(-c5cc(Cl)c(F)cc5F)c(C(F)(F)F)cc14)SC[C@@H]3COC)C2 [Example 1394, (3S,10R)-7-((1R,5S)-8-acryloyl-3,8-diazabicyclo[3.2.1]octan-3-yl)-10-(5-chloro-2,4-difluorophenyl)-3-(methoxymethyl)-9-(trifluoromethyl)-2,3-dihydro-5H-[1,4]thiazino[2,3,4-ij]quinazolin-5-one] | 93.5
C=CC(=O)N1C2CCC1CN(c1nc(=O)n3c4c(c(-c5cc(Cl)c(F)cc5F)c(C(F)(F)F)cc14)SC[C@@H]3COC)C2 [Example 1395, (3S,10S)-7-((1R,5S)-8-acryloyl-3,8-diazabicyclo[3.2.1]octan-3-yl)-10-(5-chloro-2,4-difluorophenyl)-3-(methoxymethyl)-9-(trifluoromethyl)-2,3-dihydro-5H-[1,4]thiazino[2,3,4-ij]quinazolin-5-one] | 17.3
C=CC(=O)N1[C@H](C)CN(c2nc(=O)n3c4c(c(-c5ccc(F)cc5)c(C(F)(F)F)cc24)SC[C@@H](CO)C3)C[C@@H]1C [Example 1398, (R)-8-((3S,5R)-4-acryloyl-3,5-dimethylpiperazin-1-yl)-11-(4-fluorophenyl)-3-(hydroxymethyl)-10-(trifluoromethyl)-3,4-dihydro-2H,6H-[1,4]thiazepino[2,3,4-ij]quinazolin-6-one] | 44.2
C=CC(=O)N1[C@H](C)CN(c2nc(=O)n3c4c(c(-c5ccc(F)cc5)c(C(F)(F)F)cc24)SC[C@H](CO)C3)C[C@@H]1C [Example 1399, (S)-8-((3S,5R)-4-acryloyl-3,5-dimethylpiperazin-1-yl)-11-(4-fluorophenyl)-3-(hydroxymethyl)-10-(trifluoromethyl)-3,4-dihydro-2H,6H-[1,4]thiazepino[2,3,4-ij]quinazolin-6-one] | 95.5
C=CC(=O)N1[C@@H]2CC[C@H]1CN(c1nc(=O)n3c4c(c(-c5cc(Cl)c(F)cc5F)c(Cl)cc14)SC[C@@H]3CN1CCN(CC)CC1)C2 [Example 1400, (3S)-7-((1R,5S)-8-acryloyl-3,8-diazabicyclo[3.2.1]octan-3-yl)-9-chloro-10-(5-chloro-2,4-difluorophenyl)-3-((4-ethylpiperazin-1-yl)methyl)-2,3-dihydro-5H-[1,4]thiazino[2,3,4-ij]quinazolin-5-one] | 43.7
C=CC(=O)N1C2CCC1CN(c1nc(=O)n3c4c(c(-c5cc(Cl)c(F)cc5F)c(C(F)(F)F)cc14)SCC1(COC1)C3)C2 [Example 1401, (R)-8′-((1R,5S)-8-acryloyl-3,8-diazabicyclo[3.2.1]octan-3-yl)-11′-(5-chloro-2,4-difluorophenyl)-10′-(trifluoromethyl)-2′H,4′H,6′H-spiro[oxetane-3,3′-[1,4]thiazepino[2,3,4-ij]quinazolin]-6′-one] | 76.6
C=CC(=O)N1C2CCC1CN(c1nc(=O)n3c4c(c(-c5cc(Cl)c(F)cc5F)c(C(F)(F)F)cc14)SCC1(COC1)C3)C2 [Example 1402, (S)-8′-((1R,5S)-8-acryloyl-3,8-diazabicyclo[3.2.1]octan-3-yl)-11′-(5-chloro-2,4-difluorophenyl)-10′-(trifluoromethyl)-2′H,4′H,6′H-spiro[oxetane-3,3′-[1,4]thiazepino[2,3,4-ij]quinazolin-6′-one] | 6.8
C=CC(=O)N1[C@@H]2CC[C@H]1CN(c1nc(=O)n3c4c(c(-c5cc(Cl)c(F)cc5F)c(C(F)(F)F)cc14)SC[C@@H]3CN1CCN(CC)CC1)C2 [Example 1403, (3S)-7-((1R,5S)-8-acryloyl-3,8-diazabicyclo[3.2.1]octan-3-yl)-10-(5-chloro-2,4-difluorophenyl)-3-((4-ethylpiperazin-1-yl)methyl)-9-(trifluoromethyl)-2,3-dihydro-5H-[1,4]thiazino[2,3,4-ij]quinazolin-5-one] | 80.3
C=CC(=O)N1[C@H](C)CN(c2nc(=O)n3c4c(c(-c5ccc(F)cc5)c(C(F)(F)F)cc24)SC[C@@H](COC)C3)C[C@@H]1C [Example 1407, (R)-8-((3S,5R)-4-acryloyl-3,5-dimethylpiperazin-1-yl)-11-(4-fluorophenyl)-3-(methoxymethyl)-10-(trifluoromethyl)-3,4-dihydro-2H,6H-[1,4]thiazepino[2,3,4-ij]quinazolin-6-one] | 92.7
C=CC(=O)N1[C@H](C)CN(c2nc(=O)n3c4c(c(-c5ccc(F)cc5)c(C(F)(F)F)cc24)SC[C@H](COC)C3)C[C@@H]1C [Example 1408, (S)-8-((3S,5R)-4-acryloyl-3,5-dimethylpiperazin-1-yl)-11-(4-fluorophenyl)-3-(methoxymethyl)-10-(trifluoromethyl)-3,4-dihydro-2H,6H-[1,4]thiazepino[2,3,4-ij]quinazolin-6-one] | 83.7
